Assay results from US20190367871A1, “EMBRYONIC STEM CELL MEDIA AND CULTURE” (YISSUM RESEARCH DEVELOPMENT COMPANY OF THE HEBREW …, priority 2018, published 2019).

Tests used:
diploid hESCs = experiment: Growth curve of hESCs (CellTiter-Glo luminescent cell viability assay); format: cell-based, human
Method: All genes were targeted with commercial pooled siRNAs to increase the specificity of the knockdown. esiRNAs for SALL4, DSCC1 and SEPHS1 and the control esiRNA for Renilla luciferase were obtained from Sigma (cat. nos. EHU037061, EHU021301, EHU107861 and EHURLUC, respectively). siRNA for VRTN was obtained from GE Healthcare Dharmacon (cat. no. L-021159-02-0005). Briefly, 30-50 nM siRNA was mixed with 0.14 μl of DharmaFECT 1 transfection reagent (GE Healthcare Dharmacon) in Opti-MEM I reduced serum medium (Thermo Fisher Scientific) for 30 min. The transfection mix was added on a matrigel-coated well of a 96-well plate and 3,000 hESCs were plated on the transfection mix in the presence of mTeSR 1 medium. The cells were subsequently grown for 3-4 days and the mTeSR 1 medium was replaced every 24 h. Cell viability was assessed by a CellTiter-Glo luminescent cell viability assay according to the manufacturer's instructions (Promega). Luminescence reads for the target genes were normalized to control siRNA conditions, and the replicate experiments were averaged. For growth curves of IGF1-treated and control hESCs, cells were plated in matrigel-coated wells with equal numbers and their density was measured for four consecutive days with CellTiter-Glo luminescent cell viability assay (Promega). The density measured one day after plating was considered Day 0, after which cells were switched to MEF-conditioned medium containing 100 ng ml^−1 IGF1. Every day was normalized to Day 0 and replicate experiments were averaged.

[1] = test system: human foreskin fibroblasts; experiment: Growth of fibroblasts under mTOR inhibitor treatment (CellTiter-Glo); format: cell-based; details: two days of treatment, low nanomolar concentrations
[2] = target: Bax (BCL2 associated X, apoptosis regulator) (human) (UniProt Q07812); experiment: cell-based or functional assay
hESCs [3] = experiment: Effect of Bax inhibition on hESC growth (CellTiter-Glo luminescence); format: cell-based, human; details: 100 or 200 uM, after 24 hours, vs 0 uM
Method: Next, we examined the effect of Bax inhibition on hESC growth. hESCs were treated with either 0, 100, or 200 uM of BAX-inhibiting peptide V5 (BIP-V5, Sigma). At time point zero when the peptide was added CellTiter-Glo reagent was also added to the cells and luminescence was measured with a plate reader. Bax inhibition increased the relative growth of the hESCs by 15-25% after 24 hours (FIG. 13).

hESCs [4] = experiment: Apoptosis assay (Annexin V / PI flow cytometry); format: cell-based, human; details: IGF1-treated vs control diploid hESCs
From the text: hESCs were trypsinized gently with TrypLE Select. Apoptotic cells were labelled with Annexin V and propidium iodide (PI) using the MEBCYTO Apoptosis Kit according to the manufacturer's instructions (MBL). Labelled cells were filtered through a 70 μm cell strainer and analysed in BD FACSAria III for the proportion of annexin V-positive cells.

hESCs [5] = experiment: TRA-1-60 immunocytochemistry (flow cytometry of TRA-1-60-positive pluripotent cells); format: cell-based, human; details: IGF1-treated vs control diploid hESCs
Method: hESCs were trypsinized with TrypLE Select. Cells were collected in cold PBS containing 10% KSR, centrifuged at 300 g for 5 min and resuspended in 200 μl PBS containing 10% KSR. PE-conjugated mouse anti-human TRA-1-60 antibody (1:40, BD Biosciences) was then incubated with the cells for 30 min at 4° C. Cells were washed with PBS containing 10% KSR twice, centrifuged at 300 g at 4° C. and resuspended in PBS with 10% KSR. Immunolabelled cells were filtered through a 70 μm cell strainer and analysed in BD FACSAria III for the proportion of TRA-1-60-positive cells.

hESCs [6] = experiment: Cell-cycle profile by PI staining and flow cytometry; format: cell-based, human; details: IGF1-treated vs control diploid hESCs
Method: PI staining was performed as described in Sagi, I., Egli, D. & Benvenisty, N. Identification and propagation of haploid human pluripotent stem cells. Nat. Protoc. 11, 2274-2286 (2016). Briefly, hESCs were trypsinized with TrypLE Select and fixed with cold methanol (4° C.). Fixed cells were treated with 200 μg ml^−1 RNase A (Sigma) for 30 min and stained with 50 μg ml^−1 PI for 5 min. Stained cells were filtered through a 70 μm cell strainer and analysed in BD FACSAria III for their cell-cycle profile.

Sequence of UniProt Q07812 (Q07812 whole entry): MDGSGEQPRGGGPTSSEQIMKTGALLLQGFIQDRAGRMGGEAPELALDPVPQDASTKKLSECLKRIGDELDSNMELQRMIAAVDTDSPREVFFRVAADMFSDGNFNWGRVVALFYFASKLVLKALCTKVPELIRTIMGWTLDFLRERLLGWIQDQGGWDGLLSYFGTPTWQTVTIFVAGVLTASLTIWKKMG

CCC(=O)N1CCN(c2ccc(-n3c(=O)ccc4cnc5ccc(-c6cnc7ccccc7c6)cc5c43)cc2C(F)(F)F)CC1 [Torin 1, reference compound]
growth and survival of hESCs (diploid hESCs; two days of treatment, low nanomolar concentrations): completely abolished
growth inhibition of fibroblasts [1]: up to 60%

BAX-inhibiting peptide V5
relative growth of hESCs (CellTiter-Glo luminescence) after 24 hours [2]: 15 to 25%

BAX-inhibiting peptide V5 [BIP-V5]
increase in relative growth of hESCs (hESCs [3]): 15-25%

insulin like growth factor 1 [IGF1]
percentage of apoptotic hESCs (hESCs [4]): significantly decreases the percentage of apoptotic hESCs
growth rate of diploid hESCs (diploid hESCs; IGF1 100 ng ml^-1 in MEF-conditioned medium, especially low levels of KSR, vs untreated control): significantly increased the growth rate
rescue of rapamycin growth-inhibition of hESCs (diploid hESCs; rapamycin + IGF1 vs rapamycin alone): failed to rescue
differentiation dynamics (TRA-1-60+ pluripotent cells) (hESCs [5]): not affecting
cell-cycle (cells in G2/M phase) (hESCs [6]): not affecting
